Assay results published in patent US7521199B2, “Assay to identify estrogen receptor dependent ligands that regulate the hepatic lipase promoter” (Wyeth, priority 2000, dated 2009).
Where two headings read alike, the source gives them in different places.

Test system: human hepatic lipase (HL) promoter (−1557 to +43) regulated through human estrogen receptor
Assay: Hepatic lipase promoter luciferase reporter assay in HepG2 cells cotransfected with human estrogen receptor and C/EBPα
Format: cell-based
Conditions: for Efficacy (%), Hepatic Lipase Inhibition: relative to 100% effect of 17β-estradiol inhibition of HL activity
Method: Cell media was replaced every 2-3 days. Confluent cells were rinsed once with phosphate-buffered saline and 5 mL of a prewarmed solution comprised of about 0.05% trypsin, by volume, and about 0.5 mM ethylenediamine tetraacetic acid was added. Cells were left at room temperature for 5 minutes and cells were then dislodged from the flask by tapping the flask 50 times. Trypsinization was halted by the addition of about 8.5 mL of growth cell culture media. Cells were transferred to a test tube and centrifuged at about 300×g for about 5 minutes. Total cells were counted and resuspended at a concentration of about 1×10^7 cells/200 μL of growth cell culture media.
The mixture was transferred to a 0.2 mL BTX disposable cuvette (P/N 620). Cells were electroporated using a BTX ECM 600 (San Diego, Calif.), at 100 V, […] and 72 Ω. Cells were left a room temperature for about 20 minutes. Approximately 20.5 mL of growth cell culture media was added to the cells. Cells were then seeded at about 200 μL per well of a 96 well plate. Cells were then incubated at about 37° C. for 4 hours.
Media was aspirated and replaced with 200 μL deficient media, which was comprised of Phenol Red Free-DMEM (Gibco BRL) supplemented with 1%, by volume, glutamax; 1%, by volume, penicillin/strepomycin; 1%, by volume, non-essential amino acids; and 10%, by volume, heat inactivated, and charcoal-stripped fetal bovine serum, containing varying concentrations of estrogen test compounds. […]
After estrogen treatment, cells were washed with phosphate-buffered saline and lysed with Cell Culture Lysis Reagent (Promega; Madison, Wis.), 50 μL/well, by shaking the plate at room temperature for about 20 minutes. From each well, 35 μL of cell lysate was transferred to a 96 lumat plate. Luciferase activity was determined by addition of 100 μL luciferase substrate and emitted light was detected with a Dentate Microfluor WHT FB using the Luciferase Assay System (Promega; Madison, Wis.). β-galactosidase activity was determined by adding 10 μL of cell lysate and 100 μL β-galactosidase light emission buffer (Tropix; Bedford Mass.) to a lumat plate. β-galactosidase activity was determined with a Microlumat LB 96P (EG&G Berthold). Emitted light, for each assay, was detected for 10 seconds.
Data were collected and analyzed with the JMP statistical program. Background RLU values were subtracted from both the luciferase and β-gal values. The data were normalized by division of the corrected luciferase values by the corrected β-gal values. […] Mean and standard deviations were determined from at least two separate experiments with an n=4 for each experiment.
Luciferase activity was determined in cell lysates.

[1] = transfected HepG2 cells, 16-24 hours treatment
[2] = transfected HepG2 cells, 16-24 hours treatment, luciferase normalized to β-gal, read-out: IC50 (nM), Hepatic Lipase Inhibition

SMILES | Efficacy (%), Hepatic Lipase Inhibition [1] [%] | IC50 [2] [nM] | IC50 (Homo sapiens, HepG2, read-out: IC50 (nM), Hepatic Lipase Inhibition) [nM]
C[C@]12CC[C@@H]3c4ccc(O)cc4CC[C@H]3[C@@H]1CC[C@@H]2O [17β-estradiol] | 100 | 88 | 
C[C@]12CCc3c(ccc4cc(O)ccc34)[C@@H]1CCC2=O [equilenin] | 82 |  | 38
C[C@]12CC[C@H]3C(=CCc4cc(O)ccc43)[C@@H]1CC[C@@H]2O [17β-dihydroequilin] | 149 | 469 | 
C[C@]12CC[C@@H]3c4ccc(O)cc4CC[C@H]3[C@@H]1CC[C@H]2O [17α-estradiol] | 69 | 457 | 
C[C@]12CC[C@H]3C(=CCc4cc(O)ccc43)[C@@H]1CC[C@H]2O [17α-dihydroequilin] | 89 | 164 | 
C[C@]12CCC3=C(CCc4cc(O)ccc43)[C@@H]1CCC2=O [Δ8,9-dehydroestrone] | 93 | 10 | 
C[C@]12CCC3=C(CCc4cc(O)ccc43)[C@@H]1CC[C@@H]2O [17β-Δ8,9-dehydroestradiol] | 88 | 12 | 
